This passage reports GI50 and IC50 results from patent US20240067668A1, “HETEROARYL DERIVATIVE COMPOUND AND USE THEREOF” (VORONOI INC., priority 2020, published 2024).

As a reminder, the GI50 is the concentration at which growth is held to half of that of the control. For orientation: IC50 means the concentration that gives 50% inhibition. High values mean weaker potency, low ones greater potency.

The subject of test [1] is BaF3-EGFR (Del19/T790M/C797S) cells. Briefly: Inhibitory activity on Ba/F3 cell proliferation (CellTiter-Glo, 72 hours). The conditions noted are these: Ba/F3 cells expressing EGFR Del19/T790M/C797S. It is filed as cell-based. The method, then:
(§1) The following experiments were performed to evaluate the inhibitory activity of the compound represented by Chemical Formula 1 according to the present invention on the proliferation of Ba/F3 cells expressing EGFR mutants.
(§2) BaF3-EGFR (WT) and BaF3-EGFR (Del19/T790M/C797S) cells were seeded in a clear bottom white 96-well plate at a density of 3×10^3/100 μl/well, and then 0.5 μl/well of the culture medium, containing the compounds at 12 concentrations (0.00001-2 mM) serially diluted in 3 folds and the DMSO control, was added to a final concentration of 0.00005-10 μM, followed by culturing in a 37° C. CO2 incubator for 72 hours. After 72 hours, the plates treated with the compounds were taken out, treated with 100 μl/well of CellTiter-Glo® 2.0 Assay (Promega) solution, and mixed well. After mixing well at room temperature for about 10 minutes, […] was measured using a microplate reader. As to Data, GI50 (μM) values were calculated using GraphPad Prism 8.3.0 (GraphPad software Inc., San Diego) as percentages in proportion to vehicle-based treated cells. The result values were calculated as a cell growth rate (%) compared to the control group. A graph was created using the GraphPad Prism version 5.0 program, and GI50 (μM) values were calculated.
For orientation: Cellular ATP, detected with luciferase, serves as a proxy for viable cell number.

In a further test the test system is BaF3-EGFR (WT) cells. The test is described as above. It is filed as cell-based. The conditions noted are these: Ba/F3 cells expressing EGFR WT. The procedure: as §1, §2
In another test the target is EGFR Del19/T790M/C797S (Homo sapiens, UniProt P00533, C797S/T790M, form not given). Briefly: Enzyme IC50, EGFR Del19/T790M/C797S. It is filed as biochemical.
Sequence of EGFR Del19/T790M/C797S (P00533 25-1210 T790M/C797S, form open): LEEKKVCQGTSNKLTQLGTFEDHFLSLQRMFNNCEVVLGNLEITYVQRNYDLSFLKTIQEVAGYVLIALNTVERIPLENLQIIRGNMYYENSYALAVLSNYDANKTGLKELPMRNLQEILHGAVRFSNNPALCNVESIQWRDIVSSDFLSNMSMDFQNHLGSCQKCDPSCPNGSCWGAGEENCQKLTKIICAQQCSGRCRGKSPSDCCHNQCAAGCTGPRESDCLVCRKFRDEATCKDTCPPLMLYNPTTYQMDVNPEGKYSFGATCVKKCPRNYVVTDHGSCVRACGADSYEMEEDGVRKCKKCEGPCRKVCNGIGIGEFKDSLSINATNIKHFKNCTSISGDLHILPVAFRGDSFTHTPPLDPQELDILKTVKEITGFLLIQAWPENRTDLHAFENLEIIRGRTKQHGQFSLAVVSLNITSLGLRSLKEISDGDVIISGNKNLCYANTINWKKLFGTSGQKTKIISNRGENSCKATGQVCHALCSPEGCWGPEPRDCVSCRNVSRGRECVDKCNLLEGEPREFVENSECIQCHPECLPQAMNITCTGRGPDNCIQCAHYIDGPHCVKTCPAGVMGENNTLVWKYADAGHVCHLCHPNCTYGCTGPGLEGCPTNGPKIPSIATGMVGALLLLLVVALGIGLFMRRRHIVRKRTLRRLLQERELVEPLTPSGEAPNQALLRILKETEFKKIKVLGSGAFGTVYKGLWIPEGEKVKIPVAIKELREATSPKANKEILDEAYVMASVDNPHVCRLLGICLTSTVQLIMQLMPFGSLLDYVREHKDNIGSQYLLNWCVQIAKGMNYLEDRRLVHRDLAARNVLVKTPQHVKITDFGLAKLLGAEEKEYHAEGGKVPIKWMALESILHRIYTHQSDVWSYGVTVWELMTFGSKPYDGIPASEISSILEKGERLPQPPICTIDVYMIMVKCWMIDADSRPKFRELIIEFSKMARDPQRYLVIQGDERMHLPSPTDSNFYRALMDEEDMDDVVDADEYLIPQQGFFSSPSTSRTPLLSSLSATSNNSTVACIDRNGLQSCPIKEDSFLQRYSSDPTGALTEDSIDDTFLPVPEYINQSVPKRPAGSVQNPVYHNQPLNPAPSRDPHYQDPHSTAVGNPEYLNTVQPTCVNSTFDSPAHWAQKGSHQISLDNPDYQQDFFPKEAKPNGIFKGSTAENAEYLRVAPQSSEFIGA

For the molecule `COc1cc(N2CCOCC2)c(-c2cnn(C)c2)cc1Nc1nc(Nc2ccc3nccnc3c2P(C)(C)=O)c2cc[nH]c2n1` [Example 25, (6-((2-((2-methoxy-5-(1-methyl-1H-pyrazol-4-yl)-4-morpholino-phenyl)amino)-7H-pyrrolo[2,3-d]pyrimidin-4-yl)amino)quinoxalin-5-yl)dimethyl-phosphine oxide], the GI50 in test [1] is at most 0.05 µM; in the test on BaF3-EGFR (WT) cells it was above 0.1 µM. Also, the IC50 against EGFR Del19/T790M/C797S is at most 0.05 µM.

In the case of `COc1cc(N2C[C@@H]3C[C@H]2CO3)c(-c2cnn(C)c2)cc1Nc1nc(Nc2ccc3nccnc3c2P(C)(C)=O)c2cc[nH]c2n1` [Example 26, (6-((2-((4-((1s,4S)-2-oxa-5-azabicyclo [2.2.1]heptan-5-yl)-2-methoxy-5-(1-methyl-1H-pyrazol-4-yl)phenyl)amino)-7H-pyrrolo[2,3-d]pyrimidin-4-yl)amino)quinoxalin-5-yl)dimethyl-phosphine oxide], the GI50 was at most 0.05 µM in test [1] and above 0.1 µM in the test with BaF3-EGFR (WT) cells. Further, the IC50 at EGFR Del19/T790M/C797S was at most 0.05 µM.

In the case of `COc1cc(N2C[C@H]3C[C@@H]2CO3)c(-c2cnn(C)c2)cc1Nc1nc(Nc2ccc3nccnc3c2P(C)(C)=O)c2cc[nH]c2n1` [Example 27], the GI50 in test [1] was at most 0.05 µM; in the test on BaF3-EGFR (WT) cells it was above 0.1 µM. The IC50 against EGFR Del19/T790M/C797S is at most 0.05 µM.

As for `COc1ccc(-c2cnn(C)c2)cc1Nc1nc(Nc2ccc3nccnc3c2P(C)(C)=O)c2cc[nH]c2n1` [Example 28, (6-((2-((2-methoxy-5-(1-methyl-1H-pyrazol-4-yl)phenyl)amino)-7H-pyrrolo[2,3-d]pyrimidin-4-yl)amino)quinoxalin-5-yl)dimethyl-phosphine oxide], the GI50 in test [1] was at most 0.05 µM; with BaF3-EGFR (WT) cells, above 0.1 µM. The same molecule gave an IC50 on EGFR Del19/T790M/C797S of at most 0.05 µM.

With `COc1cc(N2CC3(COC3)C2)c(-c2cnn(C)c2)cc1Nc1nc(Nc2ccc3nccnc3c2P(C)(C)=O)c2cc[nH]c2n1` [Example 29, (6-((2-((2-methoxy-5-(1-methyl-1H-pyrazol-4-yl)-4-(2-oxa-6-azaspiro[3.3]heptan-6-yl)phenyl)amino)-7H-pyrrolo[2,3-d]pyrimidin-4-yl)amino)quinoxalin-5-yl)dimethyl-phosphine oxide], the GI50 (in test [1]; in the test with BaF3-EGFR (WT) cells) was above 0.1 µM throughout. The IC50 on EGFR Del19/T790M/C797S was at most 0.05 µM.

For `COc1cc(N2C[C@H]3CC[C@@H](C2)O3)c(-c2cnn(C)c2)cc1Nc1nc(Nc2ccc3nccnc3c2P(C)(C)=O)c2cc[nH]c2n1` [Example 30, (6-((2-((4-((1R,5S)-8-oxa-3-azabicyclo [3.2.1]octan-3-yl)-2-methoxy-5-(1-methyl-1H-pyrazol-4-yl)phenyl)amino)-7H-pyrrolo[2,3-d]pyrimidin-4-yl)amino)quinoxalin-5-yl)dimethyl-phosphine oxide], the GI50 in test [1] was at most 0.05 µM; in the test with BaF3-EGFR (WT) cells it was above 0.1 µM. This molecule displayed an IC50 at EGFR Del19/T790M/C797S of at most 0.05 µM.

On to `COc1cc(F)c(-c2cnn(C)c2)cc1Nc1nc(Nc2ccc3nccnc3c2P(C)(C)=O)c2cc[nH]c2n1` [Example 31, (6-((2-((4-fluoro-2-methoxy-5-(1-methyl-1H-pyrazol-4-yl)phenyl)amino)-7H-pyrrolo[2,3-d]pyrimidin-4-yl)amino)quinoxalin-5-yl)dimethyl-phosphine oxide], for which the 50% growth inhibitory concentration (GI50) (in test [1]; with BaF3-EGFR (WT) cells) was above 0.1 µM each time. This molecule also had an IC50 on EGFR Del19/T790M/C797S of at most 0.05 µM.

Turning to `COc1cc(N2CCC3(CC2)COC3)c(-c2cnn(C)c2)cc1Nc1nc(Nc2ccc3nccnc3c2P(C)(C)=O)c2cc[nH]c2n1` [Example 32, (6-((2-((2-methoxy-5-(1-methyl-1H-pyrazol-4-yl)-4-(2-oxa-7-azaspiro[3.5]nonane-7-yl)phenyl)amino)-7H-pyrrolo[2,3-d]pyrimidin-4-yl)amino)quinoxalin-5-yl)dimethyl-phosphine oxide], the GI50 in test [1] was at most 0.05 µM; in the test on BaF3-EGFR (WT) cells it was above 0.1 µM. This molecule also had an IC50 against EGFR Del19/T790M/C797S of at most 0.05 µM.

Regarding `COc1cc(N2CC3(CCOCC3)C2)c(-c2cnn(C)c2)cc1Nc1nc(Nc2ccc3nccnc3c2P(C)(C)=O)c2cc[nH]c2n1` [Example 33, (6-((2-((2-methoxy-5-(1-methyl-1H-pyrazol-4-yl)-4-(7-oxa-2-azaspiro[3.5]nonane-2-yl)phenyl)amino)-7H-pyrrolo[2,3-d]pyrimidin-4-yl)amino)quinoxalin-5-yl)dimethyl-phosphine oxide], the GI50 (in test [1]; in the test on BaF3-EGFR (WT) cells) was above 0.1 µM in each case. The IC50 against EGFR Del19/T790M/C797S is at most 0.05 µM.

Regarding `Cn1cc(-c2cc(Nc3nc(Nc4ccc5nccnc5c4P(C)(C)=O)c4cc[nH]c4n3)ccc2N2CCOCC2)cn1` [Example 34, dimethyl (6-((2-((3-(1-methyl-1H-pyrazol-4-yl)-4-morpholino-phenyl)amino)-7H-pyrrolo[2,3-d]pyrimidin-4-yl)amino)quinoxalin-5-yl)phosphine oxide], the GI50 is at most 0.05 µM in test [1] and above 0.1 µM in the test on BaF3-EGFR (WT) cells. This molecule also displayed an IC50 against EGFR Del19/T790M/C797S of at most 0.05 µM.

Consider `COc1cc(OCCN(C)C)c(-c2cnn(C)c2)cc1Nc1nc(Nc2ccc3nccnc3c2P(C)(C)=O)c2cc[nH]c2n1` [Example 35, (6-((2-((4-(2-(dimethylamino)ethoxy)-2-methoxy-5-(1-methyl-1H-pyrazol-4-yl)phenyl)amino)-7H-pyrrolo[2,3-d]pyrimidin-4-yl)amino)quinoxalin-5-yl)dimethyl-phosphine oxide], for which the GI50 in test [1] is at most 0.05 µM; in the test on BaF3-EGFR (WT) cells, above 0.1 µM. Also, the IC50 against EGFR Del19/T790M/C797S is at most 0.05 µM.

Regarding `COc1cc(N(C)CCN(C)C)c(-c2cnn(C)c2)cc1Nc1nc(Nc2ccc3nccnc3c2P(C)(C)=O)c2cc[nH]c2n1` [Example 36, (6-((2-((4-((2-(dimethylamino)ethyl) (methyl)amino)-2-methoxy-5-(1-methyl-1H-pyrazol-4-yl)phenyl)amino)-7H-pyrrolo[2,3-d]pyrimidin-4-yl)amino)quinoxalin-5-yl)dimethyl-phosphine oxide], the GI50 was at most 0.05 µM in test [1] and above 0.1 µM in the test on BaF3-EGFR (WT) cells. On EGFR Del19/T790M/C797S, this molecule had an IC50 of at most 0.05 µM.

With `COc1cc(N2C[C@H]3COC[C@H]3C2)c(-c2cnn(C)c2)cc1Nc1nc(Nc2ccc3nccnc3c2P(C)(C)=O)c2cc[nH]c2n1` [Example 41, (6-((2-((2-methoxy-5-(1-methyl-1H-pyrazol-4-yl)-4-((3aR,6aS)-tetrahydro-1H-furo[3,4-c]pyrrole-5(3H)-yl)phenyl)amino)-7H-pyrrolo[2,3-d]pyrimidin-4-yl)amino)quinoxalin-5-yl)dimethyl-phosphine oxide], the GI50 in test [1] was at most 0.05 µM; in the test with BaF3-EGFR (WT) cells it was above 0.1 µM. For the same molecule, at EGFR Del19/T790M/C797S, the IC50 was at most 0.05 µM.

As to `COc1cc(N2CCN3CCCC[C@@H]3C2)c(-c2cnn(C)c2)cc1Nc1nc(Nc2ccc3nccnc3c2P(C)(C)=O)c2cc[nH]c2n1` [Example 43, (R)-(6-((2-((2-methoxy-5-(1-methyl-1H-pyrazol-4-yl)-4-(octahydro-2H-pyrido[1,2-alpyrazin)-2-yl)phenyl)amino)-7H-pyrrolo[2,3-d]pyrimidin-4-yl)amino)quinoxalin-5-yl)dimethyl-phosphine oxide], the GI50 in test [1] is at most 0.05 µM; in the test on BaF3-EGFR (WT) cells, 0.05 to 0.1 µM. In addition, on EGFR Del19/T790M/C797S, the IC50 is at most 0.05 µM.

Take `COc1nc(N2CCN(C)CC2)c(-c2cnn(C)c2)cc1Nc1nc(Nc2ccc3nccnc3c2P(C)(C)=O)c2cc[nH]c2n1` [Example 44, (6-((2-((2-methoxy-5-(1-methyl-1H-pyrazol-4-yl)-6-(4-methyl-piperazin-1-yl)pyridin-3-yl)amino)-7H-pyrrolo[2,3-d]pyrimidin-4-yl)amino)quinoxalin-5-yl)dimethyl-phosphine oxide]: the GI50 was at most 0.05 µM in test [1] and above 0.1 µM in the test on BaF3-EGFR (WT) cells. Further, the IC50 at EGFR Del19/T790M/C797S was at most 0.05 µM.

Regarding `CCn1cc(-c2cc(Nc3nc(Nc4ccc5nccnc5c4P(C)(C)=O)c4cc[nH]c4n3)c(OC)cc2N2CCN(C)CC2)cn1` [Example 47, (6-((2-((5-(1-ethyl-1H-pyrazol-4-yl)-2-methoxy-4-(4-methyl-piperazin-1-yl)phenyl)amino)-7H-pyrrolo[2,3-d]pyrimidin-4-yl)amino)quinoxalin-5-yl)dimethyl-phosphine oxide], the GI50 was at most 0.05 µM in test [1] and above 0.1 µM in the test on BaF3-EGFR (WT) cells. At EGFR Del19/T790M/C797S, this molecule registered an IC50 of at most 0.05 µM.

Turning to `CCN1CCN(c2cc(OC)c(Nc3nc(Nc4ccc5nccnc5c4P(C)(C)=O)c4cc[nH]c4n3)cc2-c2cnn(C(C)C)c2)CC1` [Example 48, (6-((2-((4-(4-ethylpiperazin-1-yl)-5-(1-isopropyl-1H-pyrazol-4-yl)-2-methoxyphenyl)amino)-7H-pyrrolo[2,3-d]pyrimidin-4-yl)amino)quinoxalin-5-yl)dimethyl-phosphine oxide], the GI50 (in test [1]; in the test with BaF3-EGFR (WT) cells) was above 0.1 µM in each case. For the same molecule, the IC50 against EGFR Del19/T790M/C797S is at most 0.05 µM.

On to `COc1cc(N2CCN(C)CC2)c(-c2cnn(C(F)F)c2)cc1Nc1nc(Nc2ccc3nccnc3c2P(C)(C)=O)c2cc[nH]c2n1` [Example 50, (6-((2-((5-(1-(difluoromethyl)-1H-pyrazol-4-yl)-2-methoxy-4-(4-methyl-piperazin-1-yl)phenyl)amino)-7H-pyrrolo[2,3-d]pyrimidin-4-yl)amino)quinoxalin-5-yl)dimethyl-phosphine oxide], for which the GI50 is at most 0.05 µM in test [1] and above 0.1 µM in the test with BaF3-EGFR (WT) cells. The concentration for half-maximal inhibition (IC50) on EGFR Del19/T790M/C797S was at most 0.05 µM.
